Source: the NIST ThermoML archive (doi:10.1016/j.fluid.2014.09.014)

Assay: refractive index (other wavelength) (dimensionless); xn = mol fraction of the nth substance listed
Settings: 298.15 K, 101 kPa, Liquid, Standard Abbe refractometry

CC(C)OC(C)C [diisopropyl ether] + CC(C)O
refractive index
Settings	Wavelength=435.8 nm	Wavelength=486.1 nm	Wavelength=546.1 nm	Wavelength=587.6 nm
x1 = 0.0277	–	1.37932	1.37648	1.37498
x1 = 0.0507	–	1.37925	1.37639	1.37488
x1 = 0.051	–	1.37929	1.37644	1.37491
x1 = 0.0717	1.38247	1.37903	1.37618	1.37468
x1 = 0.1528	1.38186	1.37841	1.37557	1.37406
x1 = 0.1553	1.38186	1.37841	1.37557	1.37406
x1 = 0.1938	1.38158	1.37814	1.3753	1.37379
x1 = 0.2029	1.38132	1.37787	1.37502	1.37351
x1 = 0.245	1.38088	1.37746	1.37462	1.37311
x1 = 0.297	1.38044	1.377	1.37426	1.37265
x1 = 0.2973	1.38067	1.37725	1.37439	1.37289
x1 = 0.3068	1.38023	1.37678	1.37394	1.37243
x1 = 0.398	1.37907	1.37562	1.37278	1.37127
x1 = 0.4609	1.37845	1.37502	1.37217	1.37067
x1 = 0.5434	1.37764	1.3742	1.37135	–
x1 = 0.6032	1.37707	1.37364	1.3708	–
x1 = 0.6371	1.37669	1.37328	1.37042	–
x1 = 0.701	1.37604	1.37261	1.36978	–
x1 = 0.754	1.37567	1.37225	1.3694	–
x1 = 0.791	1.37529	1.37188	1.36903	–
x1 = 0.8296	1.37498	1.37154	1.36872	–
x1 = 0.8864	1.37471	1.37132	1.36847	–
x1 = 0.8903	1.37434	1.3709	1.36807	–
x1 = 0.9113	1.37411	1.37068	1.36785	–
x1 = 0.9547	1.37367	1.37025	1.36742	–
x1 = 0.973	1.37334	1.36994	1.3671	–
x1 = 0.9771	1.3733	1.36986	1.36704	–
x1 = 1	1.37308	1.36965	1.36683	–
